According to paper PMC4769319, “Cohesin Releases DNA through Asymmetric ATPase-Driven Ring Opening” (Molecular Cell, 2016):

Molecular target: T1, Smc1/Smc3 heterodimer with Scc1-C (cohesin) (Saccharomyces cerevisiae, UniProt P32908+P47037, P47037:K38I, form not given)
T1 construct: N-terminal tags; Sf9 insect cells; fluorescently labelled for MST; with Sister chromatid cohesion protein 1
T1 sequence (P32908 1-1225): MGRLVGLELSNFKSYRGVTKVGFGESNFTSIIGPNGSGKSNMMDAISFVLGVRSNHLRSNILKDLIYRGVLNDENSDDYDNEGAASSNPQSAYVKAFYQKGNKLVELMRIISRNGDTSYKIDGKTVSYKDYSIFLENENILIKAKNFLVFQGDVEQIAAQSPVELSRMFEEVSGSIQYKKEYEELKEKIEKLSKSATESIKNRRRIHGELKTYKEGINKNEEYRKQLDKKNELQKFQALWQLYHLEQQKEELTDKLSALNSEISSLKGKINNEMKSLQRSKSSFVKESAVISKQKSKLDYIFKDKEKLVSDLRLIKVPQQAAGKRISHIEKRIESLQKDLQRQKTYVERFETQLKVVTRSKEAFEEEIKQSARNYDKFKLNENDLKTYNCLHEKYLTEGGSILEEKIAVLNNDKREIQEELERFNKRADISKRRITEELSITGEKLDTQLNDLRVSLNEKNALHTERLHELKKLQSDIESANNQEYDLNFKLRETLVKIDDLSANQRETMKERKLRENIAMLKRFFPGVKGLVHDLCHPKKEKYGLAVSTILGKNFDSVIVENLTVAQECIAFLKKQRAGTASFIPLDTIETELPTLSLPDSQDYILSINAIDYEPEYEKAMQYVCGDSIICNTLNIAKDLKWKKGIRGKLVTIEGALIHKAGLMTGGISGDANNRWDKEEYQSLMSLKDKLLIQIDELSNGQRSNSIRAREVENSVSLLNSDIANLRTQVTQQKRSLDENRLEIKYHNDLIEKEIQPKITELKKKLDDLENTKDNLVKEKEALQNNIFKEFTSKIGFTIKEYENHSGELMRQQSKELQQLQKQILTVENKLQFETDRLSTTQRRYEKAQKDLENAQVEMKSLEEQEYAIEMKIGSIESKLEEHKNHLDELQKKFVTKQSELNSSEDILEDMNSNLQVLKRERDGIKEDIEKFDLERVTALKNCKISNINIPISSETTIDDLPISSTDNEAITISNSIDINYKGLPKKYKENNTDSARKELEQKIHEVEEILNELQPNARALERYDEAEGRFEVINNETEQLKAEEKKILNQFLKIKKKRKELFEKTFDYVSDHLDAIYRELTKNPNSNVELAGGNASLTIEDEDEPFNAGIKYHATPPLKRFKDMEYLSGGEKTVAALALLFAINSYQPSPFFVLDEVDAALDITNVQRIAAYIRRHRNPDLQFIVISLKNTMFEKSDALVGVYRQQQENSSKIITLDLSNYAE
T1 sequence (P47037 1-1230 K38I): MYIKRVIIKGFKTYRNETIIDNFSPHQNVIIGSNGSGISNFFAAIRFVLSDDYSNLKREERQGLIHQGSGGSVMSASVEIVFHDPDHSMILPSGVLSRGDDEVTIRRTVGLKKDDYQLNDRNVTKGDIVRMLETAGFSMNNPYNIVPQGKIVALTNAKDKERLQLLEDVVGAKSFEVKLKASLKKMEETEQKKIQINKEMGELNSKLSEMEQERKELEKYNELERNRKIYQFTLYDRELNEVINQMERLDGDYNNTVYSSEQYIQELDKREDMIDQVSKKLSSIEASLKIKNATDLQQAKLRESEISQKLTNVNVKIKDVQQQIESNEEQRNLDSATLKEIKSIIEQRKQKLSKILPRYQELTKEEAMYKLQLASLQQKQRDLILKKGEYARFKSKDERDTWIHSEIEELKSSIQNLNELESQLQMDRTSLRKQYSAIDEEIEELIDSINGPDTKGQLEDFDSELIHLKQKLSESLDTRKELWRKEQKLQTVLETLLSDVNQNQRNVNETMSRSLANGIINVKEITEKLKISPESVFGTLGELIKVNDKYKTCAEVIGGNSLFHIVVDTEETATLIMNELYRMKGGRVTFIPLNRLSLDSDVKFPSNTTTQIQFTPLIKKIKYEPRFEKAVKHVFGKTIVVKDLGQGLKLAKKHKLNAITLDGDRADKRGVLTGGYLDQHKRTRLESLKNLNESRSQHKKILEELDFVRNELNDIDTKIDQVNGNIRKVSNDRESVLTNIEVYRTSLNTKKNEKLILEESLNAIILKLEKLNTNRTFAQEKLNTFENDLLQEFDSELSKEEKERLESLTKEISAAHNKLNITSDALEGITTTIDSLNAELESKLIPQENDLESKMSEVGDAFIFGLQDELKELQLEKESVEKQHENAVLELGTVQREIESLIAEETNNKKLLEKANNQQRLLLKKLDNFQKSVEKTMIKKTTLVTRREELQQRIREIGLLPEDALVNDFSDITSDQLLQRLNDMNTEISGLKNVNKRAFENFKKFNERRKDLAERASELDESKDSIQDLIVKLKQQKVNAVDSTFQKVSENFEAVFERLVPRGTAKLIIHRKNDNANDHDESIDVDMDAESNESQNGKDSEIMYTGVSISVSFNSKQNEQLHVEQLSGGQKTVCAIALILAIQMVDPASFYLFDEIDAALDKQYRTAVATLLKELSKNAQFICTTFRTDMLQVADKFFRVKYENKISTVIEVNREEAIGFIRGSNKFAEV
T1 sequence (Q12158 1-566 partner): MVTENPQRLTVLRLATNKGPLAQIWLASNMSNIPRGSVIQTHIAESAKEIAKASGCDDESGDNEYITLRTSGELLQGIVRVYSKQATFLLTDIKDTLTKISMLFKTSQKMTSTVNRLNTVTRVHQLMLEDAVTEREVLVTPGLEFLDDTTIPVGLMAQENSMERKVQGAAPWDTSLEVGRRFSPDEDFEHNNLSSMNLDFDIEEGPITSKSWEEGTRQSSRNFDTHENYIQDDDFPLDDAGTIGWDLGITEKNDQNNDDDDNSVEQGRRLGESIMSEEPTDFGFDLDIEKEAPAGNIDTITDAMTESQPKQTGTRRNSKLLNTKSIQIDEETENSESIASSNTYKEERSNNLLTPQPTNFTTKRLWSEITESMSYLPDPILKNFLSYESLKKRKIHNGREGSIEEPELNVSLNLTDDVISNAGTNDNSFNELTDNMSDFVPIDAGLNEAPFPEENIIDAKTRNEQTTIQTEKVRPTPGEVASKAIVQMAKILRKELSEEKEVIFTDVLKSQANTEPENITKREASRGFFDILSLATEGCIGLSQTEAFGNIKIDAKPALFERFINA
Assay: microscale thermophoresis
Conditions: fluorescently labelled protein; Smc1 co-purified with Scc1-C, plus Smc3; binding abrogated

Nc1ncnc2c1ncn2[C@@H]1O[C@H](COP(=O)(O)OP(=O)(O)O)[C@@H](O)[C@H]1O [ADP]
microscale thermophoresis: each of the Walker A mutations efficiently abrogated binding to ATP and ADP

Nc1ncnc2c1ncn2[C@@H]1O[C@H](COP(=O)(O)OP(=O)(O)OP(=O)(O)O)[C@@H](O)[C@H]1O [ATP]
microscale thermophoresis: each of the Walker A mutations efficiently abrogated binding to ATP and ADP
